# Measurements taken from patent US20120202690A1, “HERBICIDAL COMPOUNDS” (SYNGENTA LIMITED, priority 2009, published 2012).
# Tests used:
# Assay type in all cases: in vivo
# [1] = system: Alopecurus myosuroides (ALOMY); assay: Pre-emergence biological efficacy, glasshouse, 1000 g/ha, evaluated after 13 days (100=total damage to plant; 0=no damage to plant); settings: Alopecurus myosuroides, 312 h, rate 1,000 g/ha, read-out: Percentage damage caused to weed species, pre-emergence, ALOMY
# Procedure: (§1) Seeds of Alopecurus myosuroides (ALOMY), Setaria faberi (SETFA), Echinochloa crus-galli (ECHCG), Solanum nigrum (SOLNI), Amaranthus retroflexus (AMARE) and Ipomoea hederaceae (IPOHE) were sown in standard soil in pots. […] The test plants were then grown under controlled conditions in the glasshouse (at 24/16° C., day/night; 14 hours light; 65% humidity) and watered twice daily. […]
# [2] = system: Amaranthus retroflexus (AMARE); assay: as above; settings: Amaranthus retroflexus, 312 h, rate 1,000 g/ha, read-out: Percentage damage caused to weed species, pre-emergence, AMARE
# Procedure: as §1
# [3] = system: Echinochloa crus-galli (ECHCG); assay: as above; settings: Echinochloa crus-galli, 312 h, rate 1,000 g/ha, read-out: Percentage damage caused to weed species, pre-emergence, ECHCG
# Procedure: as §1
# [4] = system: Ipomoea hederaceae (IPOHE); assay: as above; settings: Ipomoea, 312 h, rate 1,000 g/ha, read-out: Percentage damage caused to weed species, pre-emergence, IPOHE
# Procedure: as §1
# Setaria faberi (SETFA) [5] = assay: as above; settings: Setaria faberi, 312 h, rate 1,000 g/ha, read-out: Percentage damage caused to weed species, pre-emergence, SETFA
# Procedure: as §1
# Solanum nigrum (SOLNI) [6] = assay: as above; settings: Solanum nigrum, 312 h, rate 1,000 g/ha, read-out: Percentage damage caused to weed species, pre-emergence, SOLNI
# Procedure: as §1
# [7] = system: Alopecurus myosuroides (ALOMY); assay: Post-emergence biological efficacy, glasshouse, 500 or 1000 g/ha, evaluated after 13 days (100=total damage to plant; 0=no damage to plant); settings: Alopecurus myosuroides, 312 h, rate 1,000 g/ha, read-out: Percentage damage caused to weed species, post-emergence, ALOMY
# Procedure: as §1, with “Echinochloa […]),” for “Echinochloa crus-galli (ECHCG),”, “grown on” for “grown”, “in a” for “in the”
# [8] = system: Amaranthus retroflexus (AMARE); assay: as above; settings: Amaranthus retroflexus, 312 h, rate 1,000 g/ha, read-out: Percentage damage caused to weed species, post-emergence, AMARE
# Procedure: as §1, with “Echinochloa […]),” for “Echinochloa crus-galli (ECHCG),”, “grown on” for “grown”, “in a” for “in the”
# [9] = system: Echinochloa crusgaffi (ECHCG); assay: as above; settings: Echinochloa, 312 h, rate 1,000 g/ha, read-out: Percentage damage caused to weed species, post-emergence, ECHCG
# Procedure: as §1, with “Echinochloa […]),” for “Echinochloa crus-galli (ECHCG),”, “grown on” for “grown”, “in a” for “in the”
# [10] = system: Ipomoea hederaceae (IPOHE); assay: as above; settings: Ipomoea, 312 h, rate 1,000 g/ha, read-out: Percentage damage caused to weed species, post-emergence, IPOHE
# Procedure: as §1, with “Echinochloa […]),” for “Echinochloa crus-galli (ECHCG),”, “grown on” for “grown”, “in a” for “in the”
# Setaria faberi (SETFA) [11] = assay: as above; settings: Setaria faberi, 312 h, rate 1,000 g/ha, read-out: Percentage damage caused to weed species, post-emergence, SETFA
# Procedure: as §1, with “Echinochloa […]),” for “Echinochloa crus-galli (ECHCG),”, “grown on” for “grown”, “in a” for “in the”
# Solanum nigrum (SOLNI) [12] = assay: as above; settings: Solanum nigrum, 312 h, rate 1,000 g/ha, read-out: Percentage damage caused to weed species, post-emergence, SOLNI
# Procedure: as §1, with “Echinochloa […]),” for “Echinochloa crus-galli (ECHCG),”, “grown on” for “grown”, “in a” for “in the”
Structure (SMILES),pest or weed control at 1000 g/ha [1] [%],pest or weed control at 1000 g/ha [2] [%],pest or weed control at 1000 g/ha [3] [%],pest or weed control at 1000 g/ha [4] [%],pest or weed control at 1000 g/ha (Setaria faberi (SETFA) [5]) [%],pest or weed control at 1000 g/ha (Solanum nigrum (SOLNI) [6]) [%],pest or weed control at 1000 g/ha [7] [%],pest or weed control at 1000 g/ha [8] [%],pest or weed control at 1000 g/ha [9] [%],pest or weed control at 1000 g/ha [10] [%],pest or weed control at 1000 g/ha (Setaria faberi (SETFA) [11]) [%],pest or weed control at 1000 g/ha (Solanum nigrum (SOLNI) [12]) [%]
"COc1c(Cl)ccc(-c2nc3c(c(C(=O)O)n2)NC(c2ccccc2)C(c2ccccc2)N3)c1F (stereo not shown) [Compound 91-203, 4-Carboxy-2-(4-chloro-2-fluoro-3-methoxyphenyl)-6,7-diphenyl-5,6,7,8-tetrahydropteridine]",0,0,0,10,0,20,0,10,0,10,10,40
"COc1c(Cl)ccc(-c2nc(C(=O)O)c3c(C)cn(Cc4ccccc4[N+](=O)[O-])c3n2)c1F [Compound 8-63, 4-Carboxy-2-(4-chloro-2-fluoro-3-methoxyphenyl)-5-methyl-7-(2-nitrophenyl-methyl)-7H-pyrrolo[2 ,3-d]pyrimidine]",0,10,0,30,0,40,10,70,50,60,20,80
"COc1c(Cl)ccc(-c2cc3[nH]cc(C)c3c(C(=O)OCc3ccccc3)n2)c1F [Compound 22-86, 4-Benzyloxycarbonyl-6-(4-chloro-2-fluoro-3-methoxyphenyl)-3-methyl-1H-pyrrolo[3,2-c]pyridine]",0,0,0,0,0,10,10,40,10,40,0,70
"COc1c(Cl)ccc(-c2nc(C(=O)O)c3c(n2)N(C(C)C)CCN3C(C)C)c1F [Compound 93-165, 4-Carboxy-2-(4-chloro-2-fluoro-3-methoxyphenyl)-5,8-diisopropyl-5,6,7,8-tetrahydropteridine]",0,0,0,10,0,0,10,20,20,20,30,30
"COC(=O)c1nc(-c2ccc(Cl)c(OC)c2F)nc2scc(C)c12 [Compound 21-64, 2-(4-Chloro-2-fluoro-3-methoxyphenyl)-4-methoxycarbonyl-5-methyl-thieno[2,3-d]pyrimidine]",0,0,0,0,0,0,0,80,10,40,0,70
"COC(=O)c1nc(-c2ccc(Cl)c(OC)c2F)cc2[nH]ccc12 [Compound 22-62, 6-(4-Chloro-2-fluoro-3-methoxyphenyl)-4-methoxycarbonyl-1H-pyrrolo[3,2-c]pyridine]",0,20,0,50,0,20,0,80,50,60,20,70
"COc1c(Cl)ccc(-c2cc3[nH]cc(C)c3c(C(=O)OCC3CCCO3)n2)c1F (stereo not shown) [Compound 22-88, 6-(4-Chloro-2-fluoro-3-methoxyphenyl)-3-methyl-4-(tetrahydrofuran-2-yl-methoxycarbonyl)-1H-pyrrolo[3,2-c]pyridine]",10,100,0,50,10,100,30,80,20,60,40,90
"COc1c(Cl)ccc(-c2nc(C(=O)O)c3cc[nH]c3n2)c1F [Compound 1-61, 4-Carboxy-2-(4-chloro-2-fluoro-3-methoxyphenyl)-7H-pyrrolo[2,3-d]pyrimidine]",0,–,0,0,0,–,10,100,20,70,40,70
"COC(=O)c1nc(-c2ccc(Cl)c(OC)c2F)cc2c1c(C)cn2C(C)=O [Compound 36-64, 6-(4-Chloro-2-fluoro-3-methoxyphenyl)-4-methoxycarbonyl-3-methyl-1-methylcarbonyl-1H-pyrrolo[3,2-c]pyridine]",0,–,0,20,0,50,0,70,0,70,10,80
"Cc1cc2c(C(=O)O)nc(-c3ccc(Cl)c(F)c3)nc2n1Cc1ccccc1[N+](=O)[O-] [Compound 8-21, 4-Carboxy-2-(4-chloro-3-fluorophenyl)-6-methyl-7-(2-nitrophenyl-methyl)-7H-pyrrolo[2,3-d]pyrimidine]",0,–,0,0,20,0,10,0,0,10,0,20
"COc1c(Cl)ccc(-c2nc(C(=O)OCc3ccccc3)c3c(C)c[nH]c3n2)c1F [Compound 1-86, 4-Benzyloxycarbonyl-2-(4-chloro-2-fluoro-3-methoxyphenyl)-5-methyl-7H-pyrrolo[2,3-d]pyrimidine]",0,–,0,0,0,10,0,40,0,30,10,60
